Consider 25 compounds from patent US12528786B2, “Plasma kallikrein inhibitors” (Merck Sharp & Dohme LLC, priority 2020, dated 2026).

The IC50 is the concentration that inhibits the measured activity by half. Low readings indicate greater potency in that assay, high ones weaker potency in that assay.

This assay deals with T1, Human plasma kallikrein (Homo sapiens, UniProt P03952).
T1 construct: yields a heavy chain (371 amino acids) and a light chain (248 amino acids); purchased Enzyme Research Laboratories
T1 sequence (P03952 391-638 limits assumed): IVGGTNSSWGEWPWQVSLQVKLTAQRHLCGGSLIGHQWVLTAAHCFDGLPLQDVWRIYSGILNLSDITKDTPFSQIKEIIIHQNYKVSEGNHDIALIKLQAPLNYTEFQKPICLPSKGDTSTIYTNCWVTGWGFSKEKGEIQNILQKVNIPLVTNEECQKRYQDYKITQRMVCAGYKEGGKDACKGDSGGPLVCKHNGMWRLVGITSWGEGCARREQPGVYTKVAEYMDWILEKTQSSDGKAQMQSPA
T1 sequence (P03952 20-390 partner limits assumed): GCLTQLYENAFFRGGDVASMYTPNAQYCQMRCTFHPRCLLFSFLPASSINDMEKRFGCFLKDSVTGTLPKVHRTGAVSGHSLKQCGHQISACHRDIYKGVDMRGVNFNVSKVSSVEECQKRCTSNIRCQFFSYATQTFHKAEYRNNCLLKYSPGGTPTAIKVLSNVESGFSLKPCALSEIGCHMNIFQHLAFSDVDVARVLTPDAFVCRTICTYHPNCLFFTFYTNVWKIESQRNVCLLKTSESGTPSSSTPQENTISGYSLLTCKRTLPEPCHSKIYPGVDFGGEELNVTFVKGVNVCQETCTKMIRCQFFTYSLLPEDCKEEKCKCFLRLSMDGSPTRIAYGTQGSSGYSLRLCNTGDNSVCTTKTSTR
Kind of assay: Kallikrein Assay (fluorogenic substrate hydrolysis, AFC release). Type of assay: biochemical. The conditions noted are these: purified Human plasma kallikrein 0.5 nM; substrate Acetyl-K—P—R-AFC 100 mM; 50 mM HEPES pH 7.4. A digest of the protocol:
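Purified human plasma kallikrein (0.5 nM final) with Acetyl-K-P-R-AFC substrate (final ≤0.2 Km) in 50 mM HEPES pH 7.4, 150 mM NaCl, 5 mM CaCl2, 0.1% PEG 8000, after enzyme–inhibitor equilibration; room temperature or 37° C. AFC fluorescence (405 Ex/510 Em nm) under linear conditions; IC50 by four-parameter fit, Ki via Cheng-Prusoff.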
`Cc1ccc(C#N)c([C@H]2C[C@@H](NC(=O)c3cn(C(C)c4nnc(N5C[C@H]6C[C@H]6C5=O)c(C)c4C)nn3)C2)n1` (single isomer, unassigned) [Example 128, N-((cis)-3-(3-cyano-6-methylpyridin-2-yl)cyclobutyl)-1-((S or R)-1-(4,5-dimethyl-6-((1R,5S)-2-oxo-3-azabicyclo[3.1.0]hexan-3-yl)pyridazin-3-yl)ethyl)-1H-1,2,3-triazole-4-carboxamide] registered an IC50 of 2.3 nM. Regarding `Cc1c(C(C)n2cc(C(=O)NC3CC(c4cccc(Cl)c4)C3O)nn2)nnc(N2C[C@H]3C[C@H]3C2=O)c1C` (single isomer, unassigned) [Example 129, N-((1R,2R,3R or 1S,2S,3S))-3-(3-chlorophenyl)-2-hydroxycyclobutyl)-1-((R or S)-1-(4,5-dimethyl-6-((1R,5S)-2-oxo-3-azabicyclo[3.1.0]hexan-3-yl)pyridazin-3-yl)ethyl)-1H-1,2,3-triazole-4-carboxamide], the half-maximal inhibitory concentration (IC50) was 839 nM. Compound `Cc1c(C(C)n2cc(C(=O)NC3CC(c4cccc(Cl)c4)C3O)nn2)nnc(N2C[C@H]3C[C@H]3C2=O)c1C` (single isomer, unassigned) [Example 130, N-((1S,2S,3S or 1R,2R,3R))-3-(3-chlorophenyl)-2-hydroxycyclobutyl)-1-((R or S)-1-(4,5-dimethyl-6-((1R,5S)-2-oxo-3-azabicyclo[3.1.0]hexan-3-yl)pyridazin-3-yl)ethyl)-1H-1,2,3-triazole-4-carboxamide] had a half-inhibitory concentration (IC50) of 8.5 nM.

In the case of `Cc1c(C(C)n2cc(C(=O)NC3CC(c4cccc(Cl)c4)C3O)nn2)nnc(N2C[C@H]3C[C@H]3C2=O)c1C` (single isomer, unassigned) [Example 131, N-((1R,2R,3R or 1S,2S,3S))-3-(3-chlorophenyl)-2-hydroxycyclobutyl)-1-((S or R)-1-(4,5-dimethyl-6-((1R,5S)-2-oxo-3-azabicyclo[3.1.0]hexan-3-yl)pyridazin-3-yl)ethyl)-1H-1,2,3-triazole-4-carboxamide], the midpoint of inhibition, the IC50, lay at 281 nM.

The compound `Cc1c(C(C)n2cc(C(=O)NC3CC(c4cccc(Cl)c4)C3O)nn2)nnc(N2C[C@H]3C[C@H]3C2=O)c1C` (single isomer, unassigned) [Example 132, N-((1S,2S,3S or 1R,2R,3R))-3-(3-chlorophenyl)-2-hydroxycyclobutyl)-1-((S or R)-1-(4,5-dimethyl-6-((1R,5S)-2-oxo-3-azabicyclo[3.1.0]hexan-3-yl)pyridazin-3-yl)ethyl)-1H-1,2,3-triazole-4-carboxamide] displayed a half-inhibitory concentration (IC50) of 279 nM.

As to `Cc1ccc(C#N)c([C@H]2C[C@@H](NC(=O)c3cn(C(C)c4cnc(N5C[C@H]6C[C@H]6C5=O)c(C)c4)nn3)C2)c1` (single isomer, unassigned) [Example 133, N-((cis)-3-(2-cyano-5-methylphenyl)cyclobutyl)-1-((R or S)-1-(5-methyl-6-((1R,5S)-2-oxo-3-azabicyclo[3.1.0]hexan-3-yl)pyridin-3-yl)ethyl)-1H-1,2,3-triazole-4-carboxamide], inhibition was half-maximal at 2.5 nM (IC50). With `Cc1ccc(C#N)c([C@H]2C[C@@H](NC(=O)c3cn(C(C)c4cnc(N5C[C@H]6C[C@H]6C5=O)c(C)c4)nn3)C2)c1` (single isomer, unassigned) [Example 134, N-((cis)-3-(2-cyano-5-methylphenyl)cyclobutyl)-1-((S or R)-1-(5-methyl-6-((1R,5S)-2-oxo-3-azabicyclo[3.1.0]hexan-3-yl)pyridin-3-yl)ethyl)-1H-1,2,3-triazole-4-carboxamide] the figure was 5.4 nM; with `Cc1ccc(C#N)c([C@H]2C[C@@H](NC(=O)c3cn(C(C)c4cnc(N5C[C@H]6C[C@H]6C5=O)c(F)c4C)nn3)C2)n1` (single isomer, unassigned) [Example 135, N-((cis)-3-(3-cyano-6-methylpyridin-2-yl)cyclobutyl)-1-((R or S)-1-(5-fluoro-4-methyl-6-((1R,5S)-2-oxo-3-azabicyclo[3.1.0]hexan-3-yl)pyridin-3-yl)ethyl)-1H-1,2,3-triazole-4-carboxamide], 80 nM; with `Cc1ccc(C#N)c([C@H]2C[C@@H](NC(=O)c3cn(C(C)c4cnc(N5C[C@H]6C[C@H]6C5=O)c(F)c4C)nn3)C2)n1` (single isomer, unassigned) [Example 136, N-((cis)-3-(3-cyano-6-methylpyridin-2-yl)cyclobutyl)-1-((S or R)-1-(5-fluoro-4-methyl-6-((1R,5S)-2-oxo-3-azabicyclo[3.1.0]hexan-3-yl)pyridin-3-yl)ethyl)-1H-1,2,3-triazole-4-carboxamide], 1.4 nM.

`C[C@H](c1cncc(N2C[C@H]3C[C@H]3C2=O)c1)n1cc(C(=O)N[C@H]2C[C@@H](c3cc(Cl)ccc3C#N)C2)nn1` (single isomer, unassigned) [Example 137]: the half-inhibitory concentration (IC50) was found to be 1.6 nM. To `C[C@@H](c1cncc(N2C[C@H]3C[C@H]3C2=O)c1)n1cc(C(=O)N[C@H]2C[C@@H](c3cc(Cl)ccc3C#N)C2)nn1` (single isomer, unassigned) [Example 138] belongs 11.1 nM.

Compound `Cc1ncc(C(C)n2cc(C(=O)N[C@H]3C[C@@H](c4cc(Cl)ccc4C#N)C3)nn2)cc1N1C[C@H]2C[C@H]2C1=O` (single isomer, unassigned) [Example 139, N-((cis)-3-(5-chloro-2-cyanophenyl)cyclobutyl)-1-((R or S)-1-(6-methyl-5-((1R,5S)-2-oxo-3-azabicyclo[3.1.0]hexan-3-yl)pyridin-3-yl)ethyl)-1H-1,2,3-triazole-4-carboxamide] had a concentration for half-maximal inhibition (IC50) of 1.4 nM. `Cc1ncc(C(C)n2cc(C(=O)N[C@H]3C[C@@H](c4cc(Cl)ccc4C#N)C3)nn2)cc1N1C[C@H]2C[C@H]2C1=O` (single isomer, unassigned) [Example 140, N-((cis)-3-(5-chloro-2-cyanophenyl)cyclobutyl)-1-((S or R)-1-(6-methyl-5-((1R,5S)-2-oxo-3-azabicyclo[3.1.0]hexan-3-yl)pyridin-3-yl)ethyl)-1H-1,2,3-triazole-4-carboxamide] displayed a half-maximal inhibitory concentration (IC50) of 11.3 nM. On to `[2H]C1(NC(=O)c2cn([C@@H](C)c3cnc(N4C[C@H]5C[C@H]5C4=O)cc3C)nn2)CC(C)(c2cc(Cl)ccc2C#N)C1` (single isomer, unassigned) [Example 145, N-((cis or trans)-3-(5-chloro-2-cyanophenyl)-3-methylcyclobutyl-1-d)-1-((S)-1-(4-methyl-6-((1R,5S)-2-oxo-3-azabicyclo[3.1.0]hexan-3-yl)pyridin-3-yl)ethyl)-1H-1,2,3-triazole-4-carboxamide], for which 126 nM corresponded to half-maximal inhibition (IC50).

`[2H]C1(NC(=O)c2cn([C@@H](C)c3cnc(N4C[C@H]5C[C@H]5C4=O)cc3C)nn2)CC(C)(c2cc(Cl)ccc2C#N)C1` (single isomer, unassigned) [Example 146, N-((trans or cis)-3-(5-chloro-2-cyanophenyl)-3-methylcyclobutyl-1-d)-1-((S)-1-(4-methyl-6-((1R,5S)-2-oxo-3-azabicyclo[3.1.0]hexan-3-yl)pyridin-3-yl)ethyl)-1H-1,2,3-triazole-4-carboxamide] gave an IC50 of 0.7 nM. In the case of `Cc1c([C@H](C)n2cc(C(=O)NC3CC(c4cccc(Cl)c4)C3O)nn2)cnc(N2C[C@H]3C[C@H]3C2=O)c1C` (single isomer, unassigned) [Example 151, N-((1R,2R,3R or 1S,2S,3S))-3-(3-chlorophenyl)-2-hydroxycyclobutyl)-1-((S)-1-(4,5-dimethyl-6-((1R,5S)-2-oxo-3-azabicyclo[3.1.0]hexan-3-yl)pyridin-3-yl)ethyl)-1H-1,2,3-triazole-4-carboxamide], half-maximal inhibition (IC50) required 1.1 nM. To `Cc1c([C@H](C)n2cc(C(=O)NC3CC(c4cccc(Cl)c4)C3O)nn2)cnc(N2C[C@H]3C[C@H]3C2=O)c1C` (single isomer, unassigned) [Example 152, N-((1S,2S,3S or 1R,2R,3R))-3-(3-chlorophenyl)-2-hydroxycyclobutyl)-1-((S)-1-(4,5-dimethyl-6-((1R,5S)-2-oxo-3-azabicyclo[3.1.0]hexan-3-yl)pyridin-3-yl)ethyl)-1H-1,2,3-triazole-4-carboxamide] belongs 78 nM; to `N#Cc1ccc(Cl)cc1[C@H]1C[C@@H](NC(=O)c2cn(C(CO)c3ccc(N4C[C@H]5C[C@H]5C4=O)nc3)nn2)C1` (single isomer, unassigned) [Example 154], 29.6 nM. `N#Cc1ccc(Cl)cc1[C@H]1C[C@@H](NC(=O)c2cn([C@H](CO)c3ccc(N4C[C@H]5C[C@H]5C4=O)nc3)nn2)C1` (single isomer, unassigned) [Example 155] came in with an IC50 of 28 nM. To `Cc1cc([C@@](C)(O)c2cc(C(=O)N[C@H]3C[C@@H](c4cc(Cl)ccc4C#N)C3)no2)cnc1N1C[C@H]2C[C@H]2C1=O` (single isomer, unassigned) [Example 156] belongs 0.7 nM; to `Cc1cc([C@](C)(O)c2cc(C(=O)N[C@H]3C[C@@H](c4cc(Cl)ccc4C#N)C3)no2)cnc1N1C[C@H]2C[C@H]2C1=O` (single isomer, unassigned) [Example 157], 24 nM. Consider `Cc1c([C@@H](C)n2cc(C(=O)N[C@H]3C[C@@H](c4cc(Cl)ccc4C#N)C3)nn2)nc(N2C[C@H]3C[C@H]3C2=O)n1C` (single isomer, unassigned) [Example 161], for which the IC50 stood at 95.9 nM. With `Cc1c([C@H](C)n2cc(C(=O)N[C@H]3C[C@@H](c4cc(Cl)ccc4C#N)C3)nn2)nc(N2C[C@H]3C[C@H]3C2=O)n1C` (single isomer, unassigned) [Example 162] the figure was 3.7 nM; with `Cc1c([C@@H](C)n2cc(C(=O)NC3CC(c4cc(Cl)ccc4C#N)C3)nn2)cnc(N2C[C@H]3C[C@H]3C2=O)c1O` (single isomer, unassigned) [Example 163], 1.1 nM; with `Cc1c(N2C[C@H]3C[C@H]3C2=O)ncc([C@@H](C)n2cc(C(=O)NC3CC(c4cc(Cl)ccc4C#N)C3)cn2)c1F` (single isomer, unassigned) [Example 165], 1 nM.
